The source of these data is ChEMBL document CHEMBL5465560, “Selectivity Literature for EUbOPEN Chemogenomic Library” (2024).

The structures appear in SMILES notation.

Experiment [1] addresses Vascular endothelial growth factor receptor 2 (Homo sapiens, UniProt P35968). Kind of experiment: Selectivity interaction (SelectScreen profiling (Invitrogen)) EUB0000607a KDR. The following applies: at 2 µM.
Experiment [2] has as its target Mitogen-activated protein kinase 8 (Homo sapiens, UniProt P45983). The following applies: at 10 µM.
Experiment [3] has as its system Serine/threonine-protein kinase B-raf (Homo sapiens), P15056 [V600E]. The following applies: at 10 µM.
The target in experiment [4] is T1, NUAK family SNF1-like kinase 2 (Homo sapiens) (UniProt Q9H093).
T1 sequence (whole entry): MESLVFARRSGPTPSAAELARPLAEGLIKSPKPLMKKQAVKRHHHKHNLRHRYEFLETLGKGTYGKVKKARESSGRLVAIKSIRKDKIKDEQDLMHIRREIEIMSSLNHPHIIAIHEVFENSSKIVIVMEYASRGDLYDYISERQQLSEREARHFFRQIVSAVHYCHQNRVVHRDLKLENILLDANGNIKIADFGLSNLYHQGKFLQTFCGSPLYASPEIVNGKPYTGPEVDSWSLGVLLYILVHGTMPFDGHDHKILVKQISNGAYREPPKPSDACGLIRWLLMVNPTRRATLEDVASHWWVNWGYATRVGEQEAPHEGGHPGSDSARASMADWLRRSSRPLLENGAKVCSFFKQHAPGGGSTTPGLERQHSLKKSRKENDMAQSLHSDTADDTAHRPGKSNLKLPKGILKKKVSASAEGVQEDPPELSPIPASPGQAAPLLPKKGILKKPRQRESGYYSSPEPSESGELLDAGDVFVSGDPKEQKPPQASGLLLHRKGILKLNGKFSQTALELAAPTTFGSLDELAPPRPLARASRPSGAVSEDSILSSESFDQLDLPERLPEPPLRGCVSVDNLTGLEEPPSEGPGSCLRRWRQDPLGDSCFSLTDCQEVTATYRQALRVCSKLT
Kind of experiment: Selectivity interaction (KinomeScan (DiscoverX)) EUB0000666a NUAK2. The conditions noted are these: at 10 µM.

For experiment [5], the target named is Mitotic checkpoint serine/threonine-protein kinase BUB1 (Homo sapiens, UniProt O43683). Nature of the experiment: Selectivity interaction (KinomeScan (DiscoverX)) EUB0001619a BUB1. The following applies: at 1 µM.
Experiment [6] addresses Receptor-type tyrosine-protein kinase FLT3 (Homo sapiens) (UniProt P36888). Nature of the experiment: Selectivity interaction (KinomeScan (DiscoverX)) EUB0001619a FLT3. The conditions noted are these: at 1 µM.
For experiment [7], the target named is Serine/threonine-protein kinase PAK 1 (Homo sapiens) (UniProt Q13153). Nature of the experiment: Selectivity interaction (Kinase panel (Invitrogen)) EUB0000639a PAK1. The following applies: at 200 nM.
Experiment [8] has as its system Epidermal growth factor receptor (Homo sapiens), P00533 [UNDEFINED MUTATION]. Kind of experiment: Selectivity interaction (KinomeScan (DiscoverX)) EUB0000092b EGFR. The conditions noted are these: at 10 µM.
For experiment [9], the target named is T2, Muscle, skeletal receptor tyrosine-protein kinase (Homo sapiens) (UniProt O15146).
T2 sequence (whole entry): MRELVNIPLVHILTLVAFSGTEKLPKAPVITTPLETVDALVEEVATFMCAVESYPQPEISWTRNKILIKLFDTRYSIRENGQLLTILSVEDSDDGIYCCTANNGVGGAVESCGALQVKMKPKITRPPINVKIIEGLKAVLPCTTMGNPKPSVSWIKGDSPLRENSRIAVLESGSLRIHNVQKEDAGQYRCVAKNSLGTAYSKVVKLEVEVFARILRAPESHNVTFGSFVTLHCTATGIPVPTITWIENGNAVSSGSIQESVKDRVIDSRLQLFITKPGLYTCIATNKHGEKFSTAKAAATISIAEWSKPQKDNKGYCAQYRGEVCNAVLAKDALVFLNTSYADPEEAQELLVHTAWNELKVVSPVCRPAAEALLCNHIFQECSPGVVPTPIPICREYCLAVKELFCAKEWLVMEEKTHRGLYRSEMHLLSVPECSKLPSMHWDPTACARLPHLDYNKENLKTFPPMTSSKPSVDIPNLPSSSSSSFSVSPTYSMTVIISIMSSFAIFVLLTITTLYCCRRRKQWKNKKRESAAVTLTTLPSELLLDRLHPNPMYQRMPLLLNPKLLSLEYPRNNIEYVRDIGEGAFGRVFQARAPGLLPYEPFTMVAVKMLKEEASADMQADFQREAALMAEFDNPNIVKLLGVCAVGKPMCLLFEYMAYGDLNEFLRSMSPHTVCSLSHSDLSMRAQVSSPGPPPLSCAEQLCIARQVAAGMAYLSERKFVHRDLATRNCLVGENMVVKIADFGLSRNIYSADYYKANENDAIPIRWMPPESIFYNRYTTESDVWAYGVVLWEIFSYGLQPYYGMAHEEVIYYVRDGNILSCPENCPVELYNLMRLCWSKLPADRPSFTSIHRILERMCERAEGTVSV
Nature of the experiment: Selectivity interaction (KinomeScan (DiscoverX)) EUB0000045b MUSK.

Mitogen-activated protein kinase 8, sequence (P45983 whole entry): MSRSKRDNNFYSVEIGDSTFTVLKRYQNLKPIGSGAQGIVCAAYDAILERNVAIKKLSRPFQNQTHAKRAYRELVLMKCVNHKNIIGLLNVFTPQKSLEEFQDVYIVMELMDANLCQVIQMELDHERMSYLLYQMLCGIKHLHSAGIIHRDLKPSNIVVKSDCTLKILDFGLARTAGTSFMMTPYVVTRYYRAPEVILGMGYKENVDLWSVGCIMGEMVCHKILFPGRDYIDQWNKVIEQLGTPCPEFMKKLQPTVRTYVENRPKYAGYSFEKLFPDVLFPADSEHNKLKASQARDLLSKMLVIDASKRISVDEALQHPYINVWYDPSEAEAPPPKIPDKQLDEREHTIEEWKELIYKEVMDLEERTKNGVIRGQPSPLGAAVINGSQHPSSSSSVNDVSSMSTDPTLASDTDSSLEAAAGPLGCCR
Serine/threonine-protein kinase B-raf (Homo sapiens), P15056 [V600E], sequence (P15056 whole entry V600E): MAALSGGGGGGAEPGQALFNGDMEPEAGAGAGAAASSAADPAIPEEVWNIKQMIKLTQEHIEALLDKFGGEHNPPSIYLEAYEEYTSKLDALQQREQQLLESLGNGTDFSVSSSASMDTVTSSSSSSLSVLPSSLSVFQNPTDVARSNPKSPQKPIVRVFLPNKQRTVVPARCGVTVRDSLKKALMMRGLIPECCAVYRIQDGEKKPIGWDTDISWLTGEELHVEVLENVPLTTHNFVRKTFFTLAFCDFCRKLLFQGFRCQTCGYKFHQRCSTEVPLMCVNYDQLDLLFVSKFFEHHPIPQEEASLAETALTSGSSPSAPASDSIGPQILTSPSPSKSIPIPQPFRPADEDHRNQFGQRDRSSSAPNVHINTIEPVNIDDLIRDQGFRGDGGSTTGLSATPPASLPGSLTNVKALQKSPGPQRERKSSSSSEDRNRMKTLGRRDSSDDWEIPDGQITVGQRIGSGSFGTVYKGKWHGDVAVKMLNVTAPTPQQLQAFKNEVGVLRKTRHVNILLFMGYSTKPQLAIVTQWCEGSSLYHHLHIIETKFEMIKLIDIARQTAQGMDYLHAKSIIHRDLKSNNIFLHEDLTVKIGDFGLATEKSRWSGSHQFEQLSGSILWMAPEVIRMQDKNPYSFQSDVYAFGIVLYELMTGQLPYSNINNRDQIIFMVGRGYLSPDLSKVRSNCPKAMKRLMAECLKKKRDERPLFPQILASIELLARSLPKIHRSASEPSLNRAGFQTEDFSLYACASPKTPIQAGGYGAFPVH
Epidermal growth factor receptor (Homo sapiens), P00533 [UNDEFINED MUTATION], sequence (P00533 whole entry, looked up, change not shown): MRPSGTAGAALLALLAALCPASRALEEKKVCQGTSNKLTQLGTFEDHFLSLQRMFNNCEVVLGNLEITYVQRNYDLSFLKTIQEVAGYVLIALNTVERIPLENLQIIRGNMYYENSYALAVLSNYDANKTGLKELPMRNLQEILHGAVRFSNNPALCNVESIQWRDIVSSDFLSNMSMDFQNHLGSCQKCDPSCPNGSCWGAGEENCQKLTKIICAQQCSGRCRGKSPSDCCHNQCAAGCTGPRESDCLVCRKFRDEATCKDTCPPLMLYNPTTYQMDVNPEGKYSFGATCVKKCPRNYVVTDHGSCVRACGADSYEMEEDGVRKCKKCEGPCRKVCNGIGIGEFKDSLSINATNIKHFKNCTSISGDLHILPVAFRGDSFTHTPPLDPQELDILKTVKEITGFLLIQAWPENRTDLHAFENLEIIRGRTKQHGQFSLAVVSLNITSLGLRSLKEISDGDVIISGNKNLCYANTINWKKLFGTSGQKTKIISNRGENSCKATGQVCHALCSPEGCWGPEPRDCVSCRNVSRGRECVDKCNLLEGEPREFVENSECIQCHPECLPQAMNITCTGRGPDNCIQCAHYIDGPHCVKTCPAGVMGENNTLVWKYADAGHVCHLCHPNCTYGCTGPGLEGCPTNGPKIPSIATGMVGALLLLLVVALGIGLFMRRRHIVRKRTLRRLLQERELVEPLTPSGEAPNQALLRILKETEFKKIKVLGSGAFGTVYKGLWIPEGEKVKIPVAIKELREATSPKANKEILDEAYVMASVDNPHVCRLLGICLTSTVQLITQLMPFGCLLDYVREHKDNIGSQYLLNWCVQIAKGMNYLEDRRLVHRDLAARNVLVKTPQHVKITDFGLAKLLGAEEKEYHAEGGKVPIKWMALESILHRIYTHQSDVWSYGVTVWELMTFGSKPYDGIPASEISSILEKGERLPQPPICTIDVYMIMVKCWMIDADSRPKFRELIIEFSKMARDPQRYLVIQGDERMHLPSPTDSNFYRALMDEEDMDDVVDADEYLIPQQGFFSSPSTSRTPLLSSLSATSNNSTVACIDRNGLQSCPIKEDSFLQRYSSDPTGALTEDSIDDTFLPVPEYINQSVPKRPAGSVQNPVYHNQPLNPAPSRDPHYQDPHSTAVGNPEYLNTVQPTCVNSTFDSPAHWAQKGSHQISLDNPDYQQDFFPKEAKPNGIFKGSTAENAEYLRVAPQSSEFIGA
Mitotic checkpoint serine/threonine-protein kinase BUB1, sequence (O43683 whole entry, looked up): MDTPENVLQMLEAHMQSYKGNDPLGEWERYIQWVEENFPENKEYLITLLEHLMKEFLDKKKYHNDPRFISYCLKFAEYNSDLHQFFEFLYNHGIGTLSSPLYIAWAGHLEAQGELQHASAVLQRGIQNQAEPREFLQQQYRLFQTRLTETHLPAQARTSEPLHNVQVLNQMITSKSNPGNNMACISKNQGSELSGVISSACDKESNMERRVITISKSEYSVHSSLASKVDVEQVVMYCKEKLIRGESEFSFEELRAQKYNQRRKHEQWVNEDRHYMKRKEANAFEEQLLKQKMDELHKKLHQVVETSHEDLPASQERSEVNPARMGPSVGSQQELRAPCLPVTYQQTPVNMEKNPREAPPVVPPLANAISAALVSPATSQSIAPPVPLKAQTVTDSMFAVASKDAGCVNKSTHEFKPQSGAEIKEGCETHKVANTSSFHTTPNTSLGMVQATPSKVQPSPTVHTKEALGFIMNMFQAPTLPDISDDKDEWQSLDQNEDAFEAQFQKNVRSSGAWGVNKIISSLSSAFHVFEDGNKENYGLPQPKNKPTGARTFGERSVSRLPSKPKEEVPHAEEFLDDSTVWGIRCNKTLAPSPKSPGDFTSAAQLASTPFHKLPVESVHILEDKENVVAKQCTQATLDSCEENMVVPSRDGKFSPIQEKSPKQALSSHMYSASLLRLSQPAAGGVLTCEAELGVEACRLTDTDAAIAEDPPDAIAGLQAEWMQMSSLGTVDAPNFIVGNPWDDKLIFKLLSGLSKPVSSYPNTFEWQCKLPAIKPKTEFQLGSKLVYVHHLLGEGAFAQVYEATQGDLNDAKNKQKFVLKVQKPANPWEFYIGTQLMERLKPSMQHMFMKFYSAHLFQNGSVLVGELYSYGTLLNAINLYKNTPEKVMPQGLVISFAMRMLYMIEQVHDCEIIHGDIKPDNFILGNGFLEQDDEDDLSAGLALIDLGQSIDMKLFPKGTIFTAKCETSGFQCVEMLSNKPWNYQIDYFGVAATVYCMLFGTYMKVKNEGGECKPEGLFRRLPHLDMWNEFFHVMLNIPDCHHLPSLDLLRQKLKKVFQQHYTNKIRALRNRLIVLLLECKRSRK
Receptor-type tyrosine-protein kinase FLT3 (Homo sapiens), sequence (P36888 whole entry): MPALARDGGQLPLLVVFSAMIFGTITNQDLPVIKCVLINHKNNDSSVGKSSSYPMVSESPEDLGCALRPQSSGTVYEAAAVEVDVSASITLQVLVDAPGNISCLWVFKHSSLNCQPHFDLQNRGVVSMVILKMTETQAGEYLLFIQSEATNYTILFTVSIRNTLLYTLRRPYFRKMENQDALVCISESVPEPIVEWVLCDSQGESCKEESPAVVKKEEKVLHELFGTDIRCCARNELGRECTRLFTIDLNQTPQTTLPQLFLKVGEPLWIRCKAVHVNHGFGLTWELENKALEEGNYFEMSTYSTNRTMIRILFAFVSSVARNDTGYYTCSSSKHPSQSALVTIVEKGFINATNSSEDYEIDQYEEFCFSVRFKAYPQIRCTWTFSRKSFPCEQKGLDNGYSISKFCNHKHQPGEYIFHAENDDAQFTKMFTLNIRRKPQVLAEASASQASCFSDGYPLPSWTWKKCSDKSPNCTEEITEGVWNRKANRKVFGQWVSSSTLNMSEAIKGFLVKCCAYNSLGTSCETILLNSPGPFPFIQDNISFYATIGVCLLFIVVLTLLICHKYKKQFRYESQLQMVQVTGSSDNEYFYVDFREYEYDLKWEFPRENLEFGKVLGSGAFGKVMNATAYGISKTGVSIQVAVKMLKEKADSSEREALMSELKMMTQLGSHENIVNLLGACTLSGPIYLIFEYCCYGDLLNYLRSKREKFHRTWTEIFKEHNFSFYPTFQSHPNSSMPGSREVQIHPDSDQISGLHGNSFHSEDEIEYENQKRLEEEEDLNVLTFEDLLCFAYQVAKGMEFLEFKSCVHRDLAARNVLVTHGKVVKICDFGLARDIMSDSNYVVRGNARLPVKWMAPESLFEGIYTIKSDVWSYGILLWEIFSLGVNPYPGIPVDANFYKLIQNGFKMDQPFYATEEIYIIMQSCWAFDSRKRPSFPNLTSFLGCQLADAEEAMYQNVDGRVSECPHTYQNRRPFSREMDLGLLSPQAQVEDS
Serine/threonine-protein kinase PAK 1 (Homo sapiens), sequence (Q13153 whole entry): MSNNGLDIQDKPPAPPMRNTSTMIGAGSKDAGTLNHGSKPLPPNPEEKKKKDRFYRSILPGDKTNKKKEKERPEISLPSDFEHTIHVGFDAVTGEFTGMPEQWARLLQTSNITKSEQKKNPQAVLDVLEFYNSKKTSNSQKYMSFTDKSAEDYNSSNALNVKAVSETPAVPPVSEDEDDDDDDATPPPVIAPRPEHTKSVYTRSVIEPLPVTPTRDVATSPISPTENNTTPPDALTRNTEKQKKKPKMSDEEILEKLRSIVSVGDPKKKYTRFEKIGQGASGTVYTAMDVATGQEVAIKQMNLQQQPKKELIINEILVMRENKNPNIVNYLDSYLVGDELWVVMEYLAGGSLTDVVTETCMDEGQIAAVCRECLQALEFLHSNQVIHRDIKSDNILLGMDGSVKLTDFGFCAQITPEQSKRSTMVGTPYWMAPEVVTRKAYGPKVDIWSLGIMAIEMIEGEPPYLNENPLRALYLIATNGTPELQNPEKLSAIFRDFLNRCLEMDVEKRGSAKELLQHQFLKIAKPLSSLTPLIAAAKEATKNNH

`CNC(=O)Nc1ccc(-c2nc(N3CC4CCC(C3)O4)c3cnn(C4CCC5(CC4)OCCO5)c3n2)cc1`: the % of inhibition in [1] was 7%.

As to `Cc1cc([C@@H](C)Nc2ccccc2C(=O)O)c2nc(N3CCOCC3)cc(=O)n2c1` [AZD-6482], the % of control in experiment [2] worked out at 100%; in [3], 92%. For `O=C(NOC[C@H](O)CO)c1ccc(F)c(F)c1Nc1ccc(I)cc1F`, in experiment [4], the % of control worked out at 99%. With `N#Cc1cccc(-c2c[nH]c3ncnc(N4CCOCC4)c23)c1`, the % of control in experiment [5] stood at 86%; in [6], 92%. On to `CC[C@@H]1[C@H](F)C(=O)N[C@@H]1COc1nccc2cc(C(N)=O)c(OC)cc12` [ZIMLOVISERTIB], for which, in experiment [7], the % of inhibition was -9.19%. `CCC(=O)N1CCN(c2ccc(-n3c(=O)ccc4cnc5ccc(-c6cnc7ccccc7c6)cc5c43)cc2C(F)(F)F)CC1`: the % of control in [8] came to 84%. Consider `C=CC(=O)Nc1cc(-n2c(=O)ccc3cnc4ccc(-c5ccc(NS(C)(=O)=O)cc5)cc4c32)ccc1C`, for which the % of control in [9] (at 1 µM) worked out at 100%; in experiment [9] (at 10 µM), 82%.
